In patent publication US8362023B2, “Pyrazolo pyrimidines” (Hoffmann-La Roche Inc., priority 2011, dated 2013):
Where a name gives a salt, the structure may show the parent alone.

Assays:
Human DYRK1A = target: T1, Human DYRK1A (Homo sapiens, UniProt Q13627); experiment: DYRK1A Kinase TR-FRET (IMAP-Tb) Assay; type: biochemical; conditions: TR-FRET (IMAP-Tb); ATP 70 μM; 37° C. for 60 minutes; averages of multiple runs; read-out: Enzyme IC50 (μM) DYRK1A
T1 construct: purchased Invitrogen PV3997
Summary of the method: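 Human DYRK1A phosphorylates a fluorescent substrate peptide (1.0 μM) in HEPES pH 7.0 buffer with Mg2+, DTT and vanadate for 60 min at 37 °C. The phosphopeptide is captured by IMAP beads carrying a Tb tracer, and the TR-FRET signal is read at 340 nm excitation. IC50 reflects inhibition of substrate phosphorylation.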

[1] = system: SW620 human colon cancer cells; experiment: SW620 Cell Viability Assay; type: cell-based; conditions: SW-620, 96 h, CellTiter-Glo Luminescent Cell Viability Assay, 4 days incubation, read-out: Cellular EC50 (μM) SW620
Protocol: SW620 Cell Viability Assay
1. Cell Plate Preparation: SW620 human colon cancer cells (known to express DYRK1B), obtained from ATCC, were seeded into 96-well plates at 3×10^3 cells/well in 50 μL of media. • Harvested the required number of cells (counts & viability determined by Guava Viacount). • Centrifuge cells to pellet and removed supernant. • Resuspended in growth media (50 μL/well) & pipetted thoroughly to break up clumps. • Setup for ˜100 wells/plate, therefore, VT=5 mL/plate @ […].
1A. Some cells (S—) were allowed to attach for 24 hrs, serum starved for 48 hrs, and then followed with test compound treatments.
Test compound solution were prepared in regular corresponding media supplemented with serum.
2. Test compound Preparation: Drugs were solubilized in either DMSO or media and prepared at various stock concentrations. • All compounds were incubated at 37° C. for 30 minutes and vortexed. • (5 mM stocks of test compound were prepared for non-soluble test compounds)
3. Test compound Plate Preparation: • The 10 mM test compound stock was diluted to a concentration of 100× the final Cmax concentration. • Then the test compound stock is diluted 50-fold in media and/or second test compound for a final Cmax concentration in the test compound plate. • The Cmax in the test compound plate (2% DMSO) is 2-fold higher than the final Cmax in the cell plate (60 μl, titrations were 1:3).
4. Viability Assay: This assay was performed as follows: • Transfer 50 μL of test compound solution per well from the test compound plate onto the cell plate prepared in Step #1. • Mix the plate with treated cells by pipetting up and down three times with 200 μL multi-channel pipette. • Incubate the cells in 5% CO2 incubator @ 37° C. for 4 days. • Run the CellTiter-Glo™ Luminescent Cell Viability Assay.
The results of this assay, given as EC50 values, indicate the concentration of test compound that inhibits tumor cell proliferation by 50%.

Human DYRK1B = target: T2, Human DYRK1B (Homo sapiens, UniProt Q9Y463); experiment: DYRK1B Kinase TR-FRET (IMAP-Tb) Assay; type: biochemical; conditions: TR-FRET (IMAP-Tb); ATP 70 μM; 37° C. for 60 minutes; averages of multiple runs; read-out: Enzyme IC50 (μM) DYRK1B
T2 construct: purchased Invitrogen PR8350B (former PV4649)
T2 sequence (Q9Y463 whole entry): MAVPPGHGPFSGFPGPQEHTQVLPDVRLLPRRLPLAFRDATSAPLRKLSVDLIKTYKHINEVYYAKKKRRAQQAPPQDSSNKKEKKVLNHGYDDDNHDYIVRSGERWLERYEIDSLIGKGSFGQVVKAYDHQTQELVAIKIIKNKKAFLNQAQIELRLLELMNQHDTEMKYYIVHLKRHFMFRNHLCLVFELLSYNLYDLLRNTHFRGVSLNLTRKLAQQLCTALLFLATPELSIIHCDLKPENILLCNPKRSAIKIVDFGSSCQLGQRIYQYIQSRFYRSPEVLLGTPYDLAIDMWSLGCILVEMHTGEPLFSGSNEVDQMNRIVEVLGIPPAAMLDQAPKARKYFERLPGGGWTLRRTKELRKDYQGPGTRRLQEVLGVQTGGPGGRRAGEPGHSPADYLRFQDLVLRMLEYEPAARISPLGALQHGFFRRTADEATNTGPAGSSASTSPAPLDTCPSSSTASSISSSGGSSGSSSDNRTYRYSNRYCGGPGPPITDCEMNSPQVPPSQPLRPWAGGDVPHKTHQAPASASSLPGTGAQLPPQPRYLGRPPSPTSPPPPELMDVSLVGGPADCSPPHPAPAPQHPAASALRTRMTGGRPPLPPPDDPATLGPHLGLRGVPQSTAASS

Structure (SMILES) | IC50 (Human DYRK1A) [µM] | EC50 [1] [µM] | IC50 (Human DYRK1B) [µM]
c1cc(-c2n[nH]c3nc(NCCN4CCOCC4)ncc23)nc(NCc2ccsc2)n1 [Example 77, (2-Morpholin-4-yl-ethyl)-(3-{2-[(thiophen-3-ylmethyl)-amino]-pyrimidin-4-yl}-1H-pyrazolo[3,4-d]pyrimidin-6-yl)-amine; hydrochloride] | 0.0129 | 5.99 | 0.04
NCC(Nc1nccc(-c2n[nH]c3nc(N[C@H]4CC[C@H](N)CC4)ncc23)n1)c1cccc(Cl)c1 (stereo partly drawn) [Example 78, N-(3-{2-[2-Amino-1-(3-chloro-phenyl)-ethylamino]-pyrimidin-4-yl}-1H-pyrazolo[3,4-d]pyrimidin-6-yl)-cyclohexane-1,4-diamine; hydrochloride] | 0.0046 | 0.7 | < 0.0046
NCCC(Nc1cccc(-c2n[nH]c3nc(N[C@H]4CC[C@H](N)CC4)ncc23)c1)c1ccccc1 (stereo partly drawn) [Example 79, N-{3-[3-(3-Amino-1-phenyl-propylamino)-phenyl]-1H-pyrazolo[3,4-d]pyrimidin-6-yl}-cyclohexane-1,4-diamine; hydrochloride] | 1.11 | > 10 | 0.601
NCCC(Nc1nccc(-c2n[nH]c3nc(N[C@H]4CC[C@H](N)CC4)ncc23)n1)c1cccc(Cl)c1 (stereo partly drawn) [Example 80, N-(3-{2-[3-Amino-1-(3-chloro-phenyl)-propylamino]-pyrimidin-4-yl}-1H-pyrazolo[3,4-d]pyrimidin-6-yl)-cyclohexane-1,4-diamine; hydrochloride] | 0.0046 | 0.89 | < 0.0046
NCCC(Nc1nccc(-c2n[nH]c3nc(NCCN4CCOCC4)ncc23)n1)c1ccccc1 (stereo not drawn) [Example 81, N1-{4-[6-(2-Morpholin-4-yl-ethylamino)-1H-pyrazolo[3,4-d]pyrimidin-3-yl]-pyrimidin-2-yl}-1-phenyl-propane-1,3-diamine; hydrochloride] | 0.112 | 1.75 | 0.0944
NCC(Nc1nccc(-c2n[nH]c3nc(NCCN4CCOCC4)ncc23)n1)c1ccsc1 (stereo not drawn) [Example 82, N1-{4-[6-(2-Morpholin-4-yl-ethylamino)-1H-pyrazolo[3,4-d]pyrimidin-3-yl]-pyrimidin-2-yl}-1-thiophen-3-yl-ethane-1,2-diamine; hydrochloride] | 0.005 | 0.27 | 0.012
